This experiment concerns the target T1, MAGL (Homo sapiens, UniProt Q99685).
T1 sequence (Q99685 1-303): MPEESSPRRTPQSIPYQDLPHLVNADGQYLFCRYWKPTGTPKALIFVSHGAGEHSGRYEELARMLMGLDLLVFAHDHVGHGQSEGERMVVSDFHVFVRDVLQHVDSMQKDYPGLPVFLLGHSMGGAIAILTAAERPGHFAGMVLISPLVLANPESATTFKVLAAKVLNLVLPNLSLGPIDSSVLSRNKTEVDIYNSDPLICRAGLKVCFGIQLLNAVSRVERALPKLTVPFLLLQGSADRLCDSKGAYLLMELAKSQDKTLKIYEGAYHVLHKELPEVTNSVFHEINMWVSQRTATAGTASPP
As to the kind of experiment: 2-AG assay (MAGL inhibitory activity; hydrolysis of 2-arachidonoylglycerol to arachidonic acid followed by mass spectrometry). Type of experiment: biochemical. To be noted: 15 min preincubation at RT, 8 μM 2-arachidonoylglycerol, 30 min at RT, RapidFire MS readout. As to the method:
Compounds were profiled for MAGL inhibitory activity by determining the enzymatic activity by following the hydrolysis of the natural substrate 2-arachidonoylglycerol (2-AG) resulting in arachidonic acid, which can be followed by mass spectrometry. This assay is hereinafter abbreviated “2-AG assay”.
The 2-AG assay was carried out in 384 well assay plates (PP, Greiner Cat #784201) in a total volume of 20 μL. Compound dilutions were made in […] (VWR Chemicals 23500.297) in a polypropylene plate in 3-fold dilution steps to give a final concentration range in the assay from 12.5 μM to […]. 0.25 μL compound dilutions (100% DMSO) were added to 9 μL MAGL in assay buffer (50 mM TRIS (GIBCO, 15567-027), 1 mM EDTA (Fluka, 03690-100 mL), 0.010 (v/v) Tween. After shaking, the plate was incubated for 15 min at RT. To start the reaction, 10 μL 2-arachidonoylglycerol in assay buffer was added. The final concentrations in the assay was […] and 8 μM 2-arachidonoylglyerol. After shaking and 30 min incubation at RT, the reaction was quenched by the addition of 40 μL of ACN containing 4 μM of d8-arachidonic acid. The amount of arachidonic acid was traced by an online SPE system (Agilent Rapidfire) coupled to a triple quadrupole mass spectrometer (Agilent 6460). A C18 SPE cartridge (G9205A) was used in an ACN/water liquid setup. The mass spectrometer was operated in negative electrospray mode following the mass transitions 303.1→259.1 for arachidonic acid and 311.1→267.0 for d8-arachidonic acid. The activity of the compounds was calculated based on the ratio of intensities [arachidonic acid/d8-arachidonic acid].

The IC50 is the concentration that inhibits the measured activity by half. Lower therefore signals greater potency in that assay. Compound `O=C(c1cccc(-c2c[nH]nc2F)c1Cl)N1CCN2CC(c3ccc(Br)nc3)OC[C@@H]2C1` (mixture of isomers) [Example 70, [2-chloro-3-(3-fluoro-1H-pyrazol-4-yl)phenyl]-[(9aS)-3-(6-bromo-3-pyridyl)-3,4,6,7,9,9a-hexahydro-1H-pyrazino[2,1-c][1,4]oxazin-8-yl]methanone] showed an IC50 of 44.6 nM.

`O=C(c1cc(F)cc(-c2c[nH]nc2F)c1Cl)N1CCN2C[C@@H](c3cc(Cl)c[nH]c3=O)OC[C@@H]2C1` [Example 133, 3-[(3R,9aS)-8-[2-chloro-5-fluoro-3-(3-fluoro-1H-pyrazol-4-yl)benzoyl]-3,4,6,7,9,9a-hexahydro-1H-pyrazino[2,1-c][1,4]oxazin-3-yl]-5-chloro-1H-pyridin-2-one] registered a 50% inhibitory concentration (IC50) of 142 nM. Compared with the last compound, the IC50 is about 3.2-fold higher.

The compound `O=C(c1cccc(-c2cnco2)c1Cl)N1CCN2C[C@@](O)(c3ccc(F)c(Cl)c3)OC[C@@H]2C1` [Example 76, [(3R,9aS)-3-(3-chloro-4-fluoro-phenyl)-3-hydroxy-1,4,6,7,9,9a-hexahydropyrazino[2,1-c][1,4]oxazin-8-yl]-(2-chloro-3-oxazol-5-yl-phenyl)methanone] came in with a concentration for half-maximal inhibition (IC50) of 15.5 nM.

Compound `O=C(c1cccc(-c2c[nH]nc2F)c1Cl)N1CCN2C[C@@H](c3ccc(F)c(F)c3)OC[C@@H]2C1` [Example 95, [(3R,9aS)-3-(3,4-difluorophenyl)-3,4,6,7,9,9a-hexahydro-1H-pyrazino[2,1-c][1,4]oxazin-8-yl]-[2-chloro-3-(3-fluoro-1H-pyrazol-4-yl)phenyl]methanone] registered a 50% inhibitory concentration (IC50) of 7.6 nM.

The compound `COc1cccc(C(=O)N2CCN3C[C@@H](c4cc(C)c(Cl)cn4)OC[C@@H]3C2)c1Cl` [Example 83, (2-chloro-3-methoxyphenyl)((3S,9aS)-3-(5-chloro-4-methylpyridin-2-yl)hexahydropyrazino[2,1-c][1,4]oxazin-8(1H)-yl)methanone] showed a half-maximal inhibitory concentration (IC50) of 94.4 nM.

With `COc1cccc(C(=O)N2CCN3CC(c4ccc5c(c4)CC5)OCC3C2)c1Cl` (mixture of isomers) [Example 47, [3-(3-bicyclo[4.2.0]octa-1,3,5-trienyl)-3,4,6,7,9,9a-hexahydro-1H-pyrazino[2,1-c][1,4]oxazin-8-yl]-(2-chloro-3-methoxy-phenyl)methanone], the IC50 was determined as 134 nM.

Turning to `CC#Cc1cc([C@@H]2CN3CCN(C(=O)c4cccc(OC)c4Cl)C[C@H]3CO2)ccc1F` [Example 13, [(3R,9aS)-3-(4-fluoro-3-prop-1-ynyl-phenyl)-3,4,6,7,9,9a-hexahydro-1H-pyrazino[2,1-c][1,4]oxazin-8-yl]-(2-chloro-3-methoxy-phenyl)methanone], the IC50 was determined as 238 nM.

As to `COc1cccc(C(=O)N2CCN3C[C@@](O)(c4ccc(C(F)(F)F)cc4)OC[C@@H]3C2)c1Cl` [Example 119, [(3R,9aS)-3-hydroxy-3-[4-(trifluoromethyl)phenyl]-1,4,6,7,9,9a-hexahydropyrazino[2,1-c][1,4]oxazin-8-yl]-(2-chloro-3-methoxy-phenyl)methanone], the IC50 worked out at 34.7 nM.

In turn, `Cc1ccncc1-c1cccc(C(=O)N2CCN3C[C@@H](c4ccc(F)c(Cl)c4)OC[C@@H]3C2)c1Cl` [Example 27, [(3R,9aS)-3-(3-chloro-4-fluoro-phenyl)-3,4,6,7,9,9a-hexahydro-1H-pyrazino[2,1-c][1,4]oxazin-8-yl]-[2-chloro-3-(4-methyl-3-pyridyl)phenyl]methanone] returned a half-inhibitory concentration (IC50) of 210 nM.

In turn, `COc1cccc(C(=O)N2CCN3CC(c4ccc(C(F)F)cc4)OCC3C2)c1Cl` (mixture of isomers) [Example 48, (2-chloro-3-methoxy-phenyl)-[3-[4-(difluoromethyl)phenyl]-3,4,6,7,9,9a-hexahydro-1H-pyrazino[2,1-c][1,4]oxazin-8-yl]methanone] yielded an IC50 of 146 nM.

In the case of `COc1cccc(C(=O)N2CCN3C[C@H](c4ccc(F)c(Cl)c4)OC[C@@]3(C)C2)c1Cl` (stereo in doubt) [Example 33, (2-chloro-3-methoxy-phenyl)-[(rel-3S,9aR)-3-(3-chloro-4-fluoro-phenyl)-9a-methyl-1,3,4,6,7,9-hexahydropyrazino[2,1-c][1,4]oxazin-8-yl]methanone], the IC50 was 1910 nM.

In turn, `O=C(c1cccc(-c2cnc[nH]2)c1Cl)N1CCN2C[C@@H](c3ccc(F)c(Cl)c3)OC[C@@H]2C1` [Example 36, [(3R,9aS)-3-(3-chloro-4-fluoro-phenyl)-3,4,6,7,9,9a-hexahydro-1H-pyrazino[2,1-c][1,4]oxazin-8-yl]-[2-chloro-3-(1H-imidazol-5-yl)phenyl]methanone] yielded a 50% inhibitory concentration (IC50) of 7.4 nM.

For the compound `COc1cccc(C(=O)N2CCN3C[C@](O)(c4ccc(F)c(Cl)c4)OC[C@H]3C2)c1Cl` [Example 46, [(3S,9aR)-3-(3-chloro-4-fluoro-phenyl)-3-hydroxy-1,4,6,7,9,9a-hexahydropyrazino[2,1-c][1,4]oxazin-8-yl]-(2-chloro-3-methoxy-phenyl)methanone], the IC50 was found to be 178 nM.

`COc1cccc(C(=O)N2CCN3C[C@@H](c4cc(Cl)c(F)c(C#N)c4)OC[C@@H]3C2)c1Cl` [Example 135, 5-[(3R,9aS)-8-(2-chloro-3-methoxy-benzoyl)-3,4,6,7,9,9a-hexahydro-1H-pyrazino[2,1-c][1,4]oxazin-3-yl]-3-chloro-2-fluoro-benzonitrile]: the IC50 stood at 146 nM.

Take `COc1ccc(F)c(C(=O)N2CCN3C[C@@H](c4cc(Cl)c[nH]c4=O)OC[C@@H]3C2)c1Cl` [Example 147, 3-[(3R,9aS)-8-(2-chloro-6-fluoro-3-methoxy-benzoyl)-3,4,6,7,9,9a-hexahydro-1H-pyrazino[2,1-c][1,4]oxazin-3-yl]-5-chloro-1H-pyridin-2-one]: the IC50 came to 385 nM.

The compound `N#Cc1n[nH]cc1-c1cccc(C(=O)N2CCN3C[C@@](O)(c4ccc(C(F)(F)F)nc4)OC[C@@H]3C2)c1Cl` [Example 80, 4-[3-[(3R,9aS)-3-hydroxy-3-[6-(trifluoromethyl)-3-pyridyl]-1,4,6,7,9,9a-hexahydropyrazino[2,1-c][1,4]oxazine-8-carbonyl]-2-chloro-phenyl]-1H-pyrazole-3-carbonitrile] had an IC50 of 26.2 nM.

In turn, `COc1cccc(C(=O)N2CCN3C[C@@](O)(c4ccc(Cl)cc4Cl)OC[C@@H]3C2)c1Cl` [Example 129, [(3R,9aS)-3-(2,4-dichlorophenyl)-3-hydroxy-1,4,6,7,9,9a-hexahydropyrazino[2,1-c][1,4]oxazin-8-yl]-(2-chloro-3-methoxy-phenyl)methanone] had a half-maximal inhibitory concentration (IC50) of 113 nM.

The compound `COc1cccc(C(=O)N2CCN3C[C@@H](c4ccc(C(F)(F)F)[nH]c4=O)OC[C@@H]3C2)c1Cl` [Example 155, 3-[(3R,9aS)-8-(2-chloro-3-methoxy-benzoyl)-3,4,6,7,9,9a-hexahydro-1H-pyrazino[2,1-c][1,4]oxazin-3-yl]-6-(trifluoromethyl)-1H-pyridin-2-one] showed a half-inhibitory concentration (IC50) of 780 nM.

On to `N#Cc1cc(-c2cccc(C(=O)N3CCN4C[C@@](O)(c5ccc(F)c(Cl)c5)OC[C@@H]4C3)c2Cl)c[nH]1` [Example 109, 4-[3-[(3R,9aS)-3-(3-chloro-4-fluoro-phenyl)-3-hydroxy-1,4,6,7,9,9a-hexahydropyrazino[2,1-c][1,4]oxazine-8-carbonyl]-2-chloro-phenyl]-1H-pyrrole-2-carbonitrile], for which the midpoint of inhibition, the IC50, lay at 1.6 nM.

For the origin of these results see patent publication US12662490B2, “Heterocyclic compounds” (Hoffmann-La Roche Inc., priority 2019, dated 2026).
